Like-named read-outs stand apart in the source and are kept apart here.
Legend:
Test in all cases: Ras GTP binding domain inhibition assay (Cy3-GTP/Cy5-GTP competition)
KRas G12C mutant = tested on: KRas G12C mutant; set-up: species or system human; details: 20 μM; for KRas G12C mutant + SOS: % inh.: with SOS; for KRas G12C mutant: % inh.: without SOS
Description: (§1) The following method was developed as specific assay for the following proteins: KRas wild type, KRas Q61H mutant, KRas G12C mutant, KRas G12D mutant, HRas wild type, Rac-1, and Rho-A.
(§2) • 25 mM Tris-HCl, pH 7.4 • 27 mM KCl • 137 mM NaCl • 1 mM MgCl2 • 1 mM DTT
(§3) • 50 mM Tris-HCl, pH 7.0 • 1 mM MgCl2 • 1 mM DTT
(§4) The small GTPases proteins: KRas wild type. KRas Q61H mutant, KRas G12C mutant, KRas G12D mutants, HRas wild type, Rac-1, and Rho-A were expressed as His-tagged proteins. In addition, the Guanosine nucleotide Exchange Factor (GEF) Sos protein (residues 556-1049) was expressed as a His-tagged protein. In cells, the guanine nucleotide exchange factor Sos protein promotes activation of Ras proteins by stimulating an exchange of GDP for GTP. The inclusion of Sos to the Ras GTP binding domain inhibition assay may be considered as an alternative representation of physiological cellular conditions for evaluating the inhibitory activity of some of the tested small molecules.
(§5) For the assay, all purified small GTPases proteins were diluted in Buffer-I or Buffer-II to a final concentration of 10-30 μg/mL. 200 μL of each diluted protein was added to a nickel-coated 96-well plate and incubated overnight at 4° C. Then the protein solution was discarded and 200 μL of Buffer-I or Buffer-II was added to each well in the presence of 1% DMSO. Compounds to be tested were added to the protein-coated wells at final concentration of 20 μM, and incubated for 3 hours at room temperature with and without […] of Sos added to the final hour of the incubation. When performing IC50 measurements a serial dilution of all tested concentrations was added. Then Cy3-GTP or Cy5-GTP was added to each well to a final concentration of 100 nM. The labeled GTP was incubated for 45 minutes at room temperature. Following GTP incubation, wells were washed 3× in Buffer-I or Buffer-II and 200 μL of Buffer-I or Buffer-II was added to each well. Following washes, the amount of bound labeled-GTP was measured using a SpectraMax M3 (Molecular Devices).

KRas wild type = tested on: KRas wild type; set-up: species or system human; details: 20 μM; for KRas wild type + SOS: % inh.: with SOS; for KRas wild type: % inh.: without SOS
Description: as §1, §2, §3, §4, §5

KRas Q61H mutant = tested on: KRas Q61H mutant; set-up: species or system human; details: 20 μM; for KRas Q61H mutant + SOS: % inh.: with SOS; for KRas Q61H mutant: % inh.: without SOS
Description: as §1, §2, §3, §4, §5

KRas G12D mutant = target: T1, KRas G12D mutant (Homo sapiens, UniProt P01116, G12D); details: 20 μM
T1 construct: fused on or other part: His tag, used for capture on nickel-coated plates
Description: as §1, §2, §3, §4, §5

[1] = with SOS, read-out: KRas G-12D mutant + SOS: % inh.
[2] = without SOS, read-out: KRas G12D mutant: % inh.

SMILES	KRas G12C mutant + SOS: % inh. (KRas G12C mutant)	KRas G12C mutant: % inh. (KRas G12C mutant)	KRas wild type + SOS: % inh. (KRas wild type)	KRas wild type: % inh. (KRas wild type)	KRas Q61H mutant + SOS: % inh. (KRas Q61H mutant)	KRas Q61H mutant: % inh. (KRas Q61H mutant)	inhibition at 20 µM (KRas G12D mutant; [1])	inhibition at 20 µM (KRas G12D mutant; [2])
CC(C)CN(C)C(=O)c1nc(-c2ccccn2)nc(O)c1O [drawing 798]	B (26-50% inhibition)	C (51-75% inhibition)	A (1-25% inhibition)	B (26-50% inhibition)	B (26-50% inhibition)	B (26-50% inhibition)	26 to 50%	26 to 50%
CN(Cc1ccccc1)C(=O)c1nc(-c2ccccn2)nc(O)c1O [drawing 799]	B (26-50% inhibition)	C (51-75% inhibition)	B (26-50% inhibition)	C (51-75% inhibition)	B (26-50% inhibition)	C (51-75% inhibition)	26 to 50%	26 to 50%
O=C(c1nc(-c2ccccn2)nc(O)c1O)N1CCOCC1 [drawing 800]	A (1-25% inhibition)	B (26-50% inhibition)	A (1-25% inhibition)	C (51-75% inhibition)	A (1-25% inhibition)	B (26-50% inhibition)	26 to 50%	26 to 50%
COc1cccc(Oc2nc(-c3ccccn3)nc(O)c2OC)c1 [drawing 801]	C (51-75% inhibition)	C (51-75% inhibition)	C (51-75% inhibition)	D (76-100% inhibition)	C (51-75% inhibition)	D (76-100% inhibition)	51 to 75%	76 to 100%
COc1c(O)nc(-c2ccccn2)nc1Oc1cccnc1 [drawing 802]	C (51-75% inhibition)	C (51-75% inhibition)	B (26-50% inhibition)	D (76-100% inhibition)	C (51-75% inhibition)	D (76-100% inhibition)	51 to 75%	51 to 75%
COc1c(O)nc(-c2ccccn2)nc1Oc1cnn(C)c1 [drawing 803]	C (51-75% inhibition)	C (51-75% inhibition)	B (26-50% inhibition)	D (76-100% inhibition)	C (51-75% inhibition)	D (76-100% inhibition)	51 to 75%	51 to 75%
COc1c(O)nc(-c2ccccn2)nc1Oc1ccc2ncccc2c1 [drawing 804]	C (51-75% inhibition)	C (51-75% inhibition)	B (26-50% inhibition)	C (51-75% inhibition)	C (51-75% inhibition)	C (51-75% inhibition)	26 to 50%	51 to 75%
COCC1CN(c2nc(-c3nccn3C)nc3sc(-c4cccc(OC)c4F)c(-c4ccc(OC)cc4)c23)C1 [drawing 805]	D (76-100% inhibition)	B (26-50% inhibition)	D (76-100% inhibition)	C (51-75% inhibition)	D (76-100% inhibition)	D (76-100% inhibition)	51 to 75%	51 to 75%
COc1ccc(-c2c(-c3cccc(OC)c3F)sc3nc(-c4nccn4C)nc(N4CCC(OC)C4)c23)cc1 (stereo not drawn) [drawing 806]	D (76-100% inhibition)	A (1-25% inhibition)	D (76-100% inhibition)	C (51-75% inhibition)	D (76-100% inhibition)	C (51-75% inhibition)	51 to 75%	51 to 75%
